# Literature values, collected in US11807631B2, “Herboxidiene derivatives and uses thereof” (Purdue Research Foundation, priority 2017, dated 2023).
# Tested on: human normal fibroblast cell line, W1-38
smiles,measurement,value
COC(C(C)O)C(C)C1OC1(C)CC(C)/C=C/C=C(\C)C1OC(CC(=O)O)CCC1C (stereo not shown) [Herboxidiene/GEX1A],cell cycle arrest,induces both G1 and G2/M cell cycle arrest
